Data published in ChEMBL document CHEMBL3091420, “Synthesis and biochemical evaluation of highly enantiomerically pure (R,R)- and (S,S)-alexidine” (Bioorg Med Chem, 2013).
Counter-ions that a name gives are not always drawn.

molecular target: Bcl-xL/BAK (Homo sapiens, UniProt Q07817+Q16611); assay: Inhibition of Bcl-xL (1 to 206, delta 45 to 84)-BAK (unknown origin) protein interaction by fluorescence polarization assay
Sequence (Q07817 whole entry): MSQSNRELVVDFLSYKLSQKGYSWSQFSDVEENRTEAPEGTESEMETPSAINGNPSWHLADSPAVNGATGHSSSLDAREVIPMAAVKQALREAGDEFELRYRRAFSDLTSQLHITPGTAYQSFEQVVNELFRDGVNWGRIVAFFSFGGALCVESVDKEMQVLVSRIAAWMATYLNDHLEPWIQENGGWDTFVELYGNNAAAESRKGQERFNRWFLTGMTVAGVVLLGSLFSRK
Sequence (Q16611 whole entry): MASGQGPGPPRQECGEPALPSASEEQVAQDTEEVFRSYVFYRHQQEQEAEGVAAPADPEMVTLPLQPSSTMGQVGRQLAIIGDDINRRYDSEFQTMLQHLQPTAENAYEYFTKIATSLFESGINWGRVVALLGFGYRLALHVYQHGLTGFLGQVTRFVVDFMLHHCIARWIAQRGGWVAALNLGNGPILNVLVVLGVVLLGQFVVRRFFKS

IC50 | Compound
18.3 µM | CCCCC(CC)CNC(=N)NC(=N)NCCCCCCNC(=N)NC(=N)NCC(CC)CCCC (mixture of isomers) [ALEXIDINE DIHYDROCHLORIDE]
25.7 µM | CCCC[C@H](CC)CNC(=N)NC(=N)NCCCCCCNC(=N)NC(=N)NC[C@@H](CC)CCCC
21.3 µM | CCCC[C@@H](CC)CNC(=N)NC(=N)NCCCCCCNC(=N)NC(=N)NC[C@H](CC)CCCC
